In patent US8486931B2, “Substituted oxindole compounds” (Abbott GmbH & Co. KG, priority 2007, dated 2013):
pKi: −log10 of the molar value.

target: T1, human vasopressin V1b receptor (Homo sapiens, UniProt P47901); assay: Vasopressin V1b receptor binding assay; settings: membranes from CHO-K1 cells with stably expressed human V1b receptors, 1.5 nM 3H-AVP displacement; with more than one stereogenic center: the diastereomer with stronger affinity
T1 construct: expressed in transfected cells; host or cells: CHO-K1 (cell line hV1b-3H2_CHO), membrane preparation
T1 sequence (P47901 1-424): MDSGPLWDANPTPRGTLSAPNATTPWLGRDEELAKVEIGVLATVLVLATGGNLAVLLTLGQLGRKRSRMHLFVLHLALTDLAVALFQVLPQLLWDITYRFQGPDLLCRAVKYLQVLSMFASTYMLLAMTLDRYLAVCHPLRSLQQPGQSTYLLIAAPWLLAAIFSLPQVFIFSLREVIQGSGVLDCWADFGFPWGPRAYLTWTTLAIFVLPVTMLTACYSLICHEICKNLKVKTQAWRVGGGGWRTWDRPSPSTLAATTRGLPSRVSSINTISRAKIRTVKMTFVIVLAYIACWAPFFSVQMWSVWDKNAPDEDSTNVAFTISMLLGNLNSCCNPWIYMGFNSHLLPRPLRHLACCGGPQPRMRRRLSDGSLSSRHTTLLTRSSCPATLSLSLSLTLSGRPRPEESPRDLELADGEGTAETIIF
Protocol: Such compounds can be investigated in suitable assays which establish the affinity to a receptor, with the affinity constant Ki represening a measure of the potency of the compounds and a smaller value representing a larger potency. The compounds of the invention were tested in the following receptor binding assay for their affinity for the V1 b receptor.
Vasopressin V1 b Receptor Binding Assay:
The test substances were dissolved in a concentration of 10^−2 M in DMSO (dimethyl sulfoxide) and further diluted to 5×10^−4 M to 5×10^−9 M in DMSO. This series of DMSO predilutions was diluted 1:10 with assay buffer. The substance concentration was again diluted 1:5 in the assay mixture (2% DMSO in the mixture).
The membrane pellet was again homogenized and centrifuged as described and then taken up in 50 mM Tris-HCl, pH 7.4, homogenized and stored in aliquots frozen in liquid nitrogen at −190° C.
The incubation buffer was: 50 mM Tris, 10 mM MgCl2, 0.1% BSA, pH 7.4.
The nonspecific binding was determined with 1 μM AVP (Bachem #H1780). All determinations were carried out as triplicate determinations. After incubation (60 minutes at room temperature), the free radioligand was removed by vacuum filtration (Skatron cell harvester 7000) through Whatman GF/B glass fiber filter mats, and the filters were transferred into scintillation vials. The liquid scintillation measurement took place in a Tricarb model 2000 or 2200CA instrument (Packard). Conversion of the measured cpm into dpm was carried out with the aid of a standard quench series.
The binding parameters were calculated by nonlinear regression in SAS.
The above assay was used to measure the affinities of the compounds of the invention for the human vasopressin V1 b receptor and to determine with affinity constants (Ki).

Row | Compound | pKi
1 | CCOc1ccccc1C1(N2CCN(c3ccncc3)CC2)C(=O)N(S(=O)(=O)c2ccc(C)c3cccnc23)c2ccc(C#N)cc21 (racemic) [Example 88, (±)-5-Cyano-3-(2-ethoxyphenyl)-1-(5-methylquinoline-8-sulfonyl)-3-(4-pyridin-4-yl-piperazin-1-yl)-2,3-dihydro-1H-indol-2-one] | 7.30 to 8.00
2 | CCOc1ccc(C)cc1C1(N2CCN(c3ccncc3)CC2)C(=O)N(S(=O)(=O)c2ccc(OC)cn2)c2ccc(C#N)cc21 (racemic) [Example 169, (±)-5-Cyano-3-(2-ethoxy-5-methyl-phenyl)-1-(5-methoxy-pyridine-2-sulfonyl)-3-(4-pyridin-4-yl-piperazin-1-yl)-2,3-dihydro-1H-indol-2-one] | > 8.00
3 | CCOc1ccccc1C1(N2CCN(c3ccncc3)CC2)C(=O)N(S(=O)(=O)c2ccc(OCC)c3cccnc23)c2ccc(C#N)cc21 (single isomer, unassigned; (+)) [Example 67, (+)-5-Cyano-3-(2-ethoxyphenyl)-1-(5-ethoxyquinoline-8-sulfonyl)-3-(4-pyridin-4-yl-piperazin-1-yl)-2,3-dihydro-1H-indol-2-one] | 7.30 to 8.00
4 | CCOc1ccc(OC)cc1C1(N2CCN(c3ccnc(C)c3)CC2)C(=O)N(S(=O)(=O)c2ccc(Cl)c3cccnc23)c2ccc(C#N)cc21 (racemic) [Example 53, (±)-5-Cyano-1-(5-chloroquinoline-8-sulfonyl)-3-(2-ethoxy-5-methoxyphenyl)-3-[4-(2-methylpyridin-4-yl)piperazin-1-yl]-2,3-dihydro-1H-indol-2-one] | 7.30 to 8.00
5 | CCOc1ccc(OC)cc1C1(N2CCN(c3ccncc3)CC2)C(=O)N(S(=O)(=O)c2ccc(OC)c3cccnc23)c2ccc(C#N)cc21 (single isomer, unassigned; (+)) [Example 162, (+)-5-Cyano-3-(2-ethoxy-5-methoxy-phenyl)-1-(5-methoxy-quinoline-8-sulfonyl)-3-(4-pyridin-4-yl-piperazin-1-yl)-2,3-dihydro-1H-indol-2-one] | 7.30 to 8.00
6 | CCOc1ccccc1C1(N2CCN(c3ccncc3)CC2)C(=O)N(S(=O)(=O)c2ccc(F)c3cccnc23)c2ccc(C#N)cc21 (racemic) [Example 26, (±)-5-Cyano-3-(2-ethoxyphenyl)-1-(5-fluoroquinoline-8-sulfonyl)-3-(4-pyridin-4-yl-piperazin-1-yl)-2,3-dihydro-1H-indol-2-one] | 7.30 to 8.00
7 | CCOc1nc(Cl)ccc1C1(N2CCN(c3ccncc3)CC2)C(=O)N(S(=O)(=O)c2ccc(OC)cn2)c2ccc(C#N)cc21 (racemic) [Example 36, (±)-5-Cyano-3-(6-chloro-2-ethoxypyridin-3-yl)-1-(5-methoxypyridine-2-sulfonyl)-3-(4-pyridin-4-ylpiperazin-1-yl)-2,3-dihydro-1H-indol-2-one] | > 8.00
8 | CCOc1nc(Cl)ccc1C1(N2CCC(N3CCN(C)CC3)CC2)C(=O)N(S(=O)(=O)c2ccc(OC)cn2)c2ccc(C#N)cc21 (racemic) [Example 170, (±)-5-Cyano-3-(6-chloro-2-ethoxy-pyridin-3-yl)-1-(5-methoxy-pyridine-2-sulfonyl)-3-[4-(4-methyl-piperazin-1-yl)-piperidin-1-yl]-2,3-dihydro-1H-indol-2-one] | > 8.00
9 | CCOc1ccccc1C1(N2CCN(c3ccncc3)CC2)C(=O)N(S(=O)(=O)c2cccc3cccnc23)c2ccc(C#N)cc21 (single isomer, unassigned; (+)) [Example 60, (+)-5-Cyano-3-(2-ethoxyphenyl)-3-(4-pyridin-4-ylpiperazin-1-yl)-1-(quinolin-8-sulfonyl)-2,3-dihydro-1H-indol-2-one] | > 8.00
10 | COc1ccccc1C1(N2CCN(c3ccncc3)CC2)C(=O)N(S(=O)(=O)c2cccc3cccnc23)c2ccc(C#N)cc21 (racemic) [Example 43, (±)-5-Cyano-3-(2-methoxyphenyl)-3-(4-pyridin-4-ylpiperazin-1-yl)-1-(quinoline-8-sulfonyl)-2,3-dihydro-1H-indol-2-one] | 7.30 to 8.00
11 | CCOc1ccc(OC)cc1C1(N2CCC(N3CCN(CC)CC3)CC2)C(=O)N(S(=O)(=O)c2ccc(OC)cn2)c2ccc(C#N)cc21 (racemic) [Example 145, (±)-5-Cyano-3-(2-ethoxy-5-methoxy-phenyl)-3-[4-(4-ethyl-piperazin-1-yl)-piperidin-1-yl]-1-(5-methoxy-pyridine-2-sulfonyl)-2,3-dihydro-1H-indol-2-one] | 7.30 to 8.00
12 | CCOc1nc(Cl)ccc1C1(N2CCN(c3ccnc(C)c3)CC2)C(=O)N(S(=O)(=O)c2ccc(OC)cn2)c2ccc(C#N)cc21 (racemic) [Example 34, (±)-5-Cyano-3-(6-chloro-2-ethoxypyridin-3-yl)-1-(5-methoxypyridine-2-sulfonyl)-3-[4-(2-methylpyridin-4-yl)piperazin-1-yl]-2,3-dihydro-1H-indol-2-one] | > 8.00
13 | CCOc1ccccc1C1(N2CCN(c3ccncc3)CC2)C(=O)N(S(=O)(=O)c2ccc(C)cn2)c2ccc(C#N)cc21 (single isomer, unassigned; (+)) [Example 61, (+)-5-Cyano-3-(2-ethoxyphenyl)-1-(5-methylpyridine-2-sulfonyl)-3-(4-pyridin-4-yl-piperazin-1-yl)-2,3-dihydro-1H-indol-2-one] | > 8.00
14 | (±)-5-Cyano-3-(6-chloro-2-ethoxypyridin-3-yl)-1-(2,4-dimethoxybenzenesulfonyl)-3-[4-(2-methylpyridin-4-yl)piperazin-1-yl]-2,3-dihydro-1H-indol-2-one [Example 28] | 7.30 to 8.00
15 | CCOc1ccc(OC)cc1C1(N2CC3CN(c4ccncc4)CC3C2)C(=O)N(S(=O)(=O)c2ccc(OC)cn2)c2ccc(C#N)cc21 (racemic) [Example 68, (±)-5-Cyano-3-(2-ethoxy-5-methoxyphenyl)-1-(5-methoxypyridine-2-sulfonyl)-3-(5-pyridin-4-ylhexahydropyrrolo[3,4-c]pyrrol-2-yl)-2,3-dihydro-1H-indol-2-one] | > 8.00
16 | CCOc1ccc(OC)cc1C1(N2CCCN(c3ccnc(C)c3)CC2)C(=O)N(S(=O)(=O)c2cccc3cccnc23)c2ccc(C#N)cc21 (racemic) [Example 62, (±)-5-Cyano-3-(2-ethoxy-5-methoxyphenyl)-3-[4-(2-methylpyridin-4-yl)-[1,4]diazepan-1-yl]-1-(quinoline-8-sulfonyl)-2,3-dihydro-1H-indol-2-one] | > 8.00
17 | CCOc1nc(Cl)ccc1C1(N2CCN(c3ccnc(C)c3)CC2)C(=O)N(S(=O)(=O)c2cccc3cccnc23)c2ccc(C#N)cc21 (racemic) [Example 27, (±)-5-Cyano-3-(6-chloro-2-ethoxypyridin-3-yl)-3-[4-(2-methylpyridin-4-yl)-piperazin-1-yl]-1-(quinoline-8-sulfonyl)-2,3-dihydro-1H-indol-2-one] | 7.30 to 8.00
18 | CCOc1nc(Cl)ccc1C1(N2CC3CN(c4ccncc4)CC3C2)C(=O)N(S(=O)(=O)c2ccc(OC)cn2)c2ccc(C#N)cc21 (racemic) [Example 148, (±)-5-Cyano-3-(6-chloro-2-ethoxy-pyridin-3-yl)-1-(5-methoxy-pyridine-2-sulfonyl)-3-(5-pyridin-4-yl-hexahydro-pyrrolo[3,4-c]pyrrol-2-yl)-2,3-dihydro-1H-indol-2-one] | 7.30 to 8.00
19 | CCOc1ccc(OC)cc1C1(N2CCN(c3ccnc(C)c3)CC2)C(=O)N(S(=O)(=O)c2ccc(C)cn2)c2ccc(C#N)cc21 (racemic) [Example 52, (±)-5-Cyano-3-(2-ethoxy-5-methoxyphenyl)-1-(5-methylpyridine-2-sulfonyl)-3-[4-(2-methylpyridin-4-yl)piperazin-1-yl]-2,3-dihydro-1H-indol-2-one] | 7.30 to 8.00
20 | CCOc1ccc(OC)cc1C1(N2CCN(c3ccnc(CC)c3)CC2)C(=O)N(S(=O)(=O)c2ccc(OC)cn2)c2ccc(C#N)cc21 (racemic) [Example 146, (±)-5-Cyano-3-(2-ethoxy-5-methoxy-phenyl)-3-[4-(2-ethyl-pyridin-4-yl)-piperazin-1-yl]-1-(5-methoxy-pyridine-2-sulfonyl)-2,3-dihydro-1H-indol-2-one] | > 8.00
21 | COc1cccc(C2(N3CCN(c4ccncc4)CC3)C(=O)N(S(=O)(=O)c3cccc4cccnc34)c3ccc(Cl)cc32)c1OC (racemic) [Example 2, (±)-5-Chloro-3-(2,3-dimethoxyphenyl)-3-(4-pyridin-4-ylpiperazin-1-yl)-1-(quinoline-8-sulfonyl)-1,3-dihydroindol-2-one] | 7.30 to 8.00
